In patent US9809622B2, “Tumor-targeting polypeptide and application thereof” (Sun Yat-sen University Cancer Center, priority 2013, dated 2017):
Positions of bridges follow the written chain, without caps; N, C: chain ends. Non-standard residues stand in square brackets, D forms with d. Residues, ends and D or L forms follow the SMILES beside them. No end group written: not given here. *: point of attachment. Biotin = O=C1N[C@H]2[C@H](CS[C@H]2CCCCC(=O)*)N1

Experiments:
[1] = system: CNE2 cells; assay: Therapeutic effect of 35-AP peptide in tumor-bearing mice; type: in vivo, BALB/C nude mice; conditions: 200 μg intravenously every other day 6 times, compared with two control groups, FIG. 6E
Description: Injecting 35-AP peptide to tumor-bearing mice to detect its therapeutic effect. Detailed steps were as follows: • 1) Selecting twenty four 4-week-old BALB/C nude mice; • 2) Trypsinizing CNE2 cells, counting and adjusting the concentration to 1.0*10^6 cells/ml, and re-suspending cells with 200 μl RPMI 1640 medium containing 20% Matrigel, then subcutaneously injecting 200 μl re-suspended cells into the nude mice; • 3) Observing and measuring the size of tumor after 1-2 weeks. Based on the tumor size, the mice were randomly divided into three groups (PBS, Control AP and 35-AP); • 4) Intravenously injecting 200 μl PBS or 200 μg fluorescence peptide dissolved in 200 μl PBS every other day for 6 times in total. Measuring the length and width of tumor before and after injection. The volume of tumor=0.52*(length*width*width); • 5) Performing statistical analysis of the size of tumors.

[2] = system: 5-8F; assay: Apoptosis by Cleaved Caspase 3/7 kit, flow cytometry; type: cell-based; conditions: FIG. 6B
Description: (§1) Therapeutic effects of 35-AP peptide were assessed by Cleaved Caspase 3/7 kit. Detailed steps were as followed: • 1) After the cells were planked for 24 hours, the peptide dissolved by 1640 was incubated with cells at 37° C. for four hours; • 2) Trypsinizing cells with TrypLE Expression, counting and adjusting the concentration to 1.0*10^6 cells/ml, and transferring 300 μl into flow cytometry tube; • 3) Adding 10 μl 30*FLICA working solution; • 4) Incubating the cells at 37° C. with 5% CO2 for one hour, and mixing once every 15 minutes; • 5) Washing with 2 ml Washing buffer, then centrifuging at 400 g force for 5 minutes; • 6) Re-suspending the precipitate with 1 ml Washing buffer; • 7) Detecting the staining signal using flow cytometer.

[3] = system: SUNE1; assay: as above; type: cell-based; conditions: FIG. 6B
Description: as §1

[4] = system: CNE2; assay: as above; type: cell-based; conditions: FIG. 6A
Description: as §1

[5] = system: CNE1; assay: as above; type: cell-based; conditions: FIG. 6B
Description: as §1

[6] = system: HONE1; assay: as above; type: cell-based; conditions: FIG. 6B
Description: as §1

[7] = system: CNE2; assay: Cleaved Caspase3 cellular immunofluorescence assay; type: cell-based; conditions: incubated with CNE2; FIG. 6C
[8] = system: CNE2 cells; conditions: 37° C. two hours
Description: The cellular immunofluorescence assay was applied to detect whether Biotin-35 peptide can penetrate CNE2 cells. Detailed steps were as followed: • 1) Incubating Biotin-35 peptide or Biotin-control peptide with cells at 37° C. for two hours; • 2) Washing three times with 1 ml PBS for 5 minutes; • 3) Fixing the cells with 4% paraformaldehyde for 10 minutes; • 4) Incubating cells with 0.1% Triton-X100 for 5 minutes; • 5) Blocking with 5% BSA for 30 minutes; • 6) Washing with 1 ml PBS twice; • 7) Adding FITC-streptavidin and avoiding light for one hour; • 8) Washing three times with 1 ml PBS for 5 minutes; • 9) Adding DAPI at a ratio of 1:2000 and keeping it away from light at room temperature for 5 minutes, • 10) Washing with 1 ml PBS for 5 minutes, • 11) Mounting samples with Anti-fade, and observing the samples under the laser confocal microscope.

[9] = system: nasopharyngeal carcinoma cell line, CNE2; assay: Blocking test in phage counting assay (35 peptide blocks phage 35 binding); type: cell-based; conditions: FIG. 1B
Description: The phage counting assay was conducted to first test the binding ability of phage 35 to nasopharyngeal carcinoma cell line, CNE2 and then test whether the 35 peptide can block the binding of the phage 35 to CNE2. The process will be described in detail hereinafter. • 1) Trypsinizing cells, counting to obtain 1.0*10^6 cells/tube, and re-suspending cells with 200 μl RPMI (Roswell Park Memorial Institute) 1640 medium; • 2) For the blocking test, adding the 35 peptide at a corresponding concentration and incubating on ice for 30 minutes (the binding assay skips this step and directly goes to the third step); • 3) Adding 1.0*10^8 phages, and incubating on ice for binding for one hour; • 4) After washing with 1 ml PBS (Phosphate Buffered Saline), the resulting products were centrifuged at 400 g force for 5 min; repeating this step three times; • 5) Re-suspending the precipitate with 1 ml TBS (Tris Buffered Saline), diluting the resulting suspension liquid 10^3-10^4 fold, and only taking 100 μl for phage count assay; • 6) Inoculating BL21 competent cell for T7 phage with 1:100 v/v, then shaking at 200 RPM at 37° C. for four hours until OD600 (Optical Density at a wavelength of 600 nm) reaches 0.5-1.0 when the bacteria are on the logarithmic phase. […] The titer of phage was calculated based on the diluted factors.

[10] = system: tumor vessels and tumor cells; assay: Targeting and penetrating tumor vessels and tumor cells, frozen section and immunohistochemical assay; type: in vivo, BALB/C nude mice; conditions: 300 μg
Description: Cy5-35 peptide is tested to target and penetrate the vessels using the frozen section and immunohistochemical assay. Detailed steps were as followed: • 1) Using nine 4-week-old BALB/C nude mice • 2) Trypsinizing cells, counting and adjusting the concentration to 1.0*10^6 cells/ml, and re-suspending cells with 200 μl RPMI 1640 medium containing 20% Matrigel, then subcutaneously injecting into the nude mice; • 3) Observing and measuring the size of tumor after 1-2 weeks. Based on the tumor size, the mice were randomly divided into three groups (PBS, Cy5-Control and Cy5-35, three mice in each group); • 4) Intravenously injecting 200 μl PBS or 300 μg fluorescence peptide dissolved in 200 μl PBS; • 5) Obtaining the tumor tissues, and making frozen sections and cutting slides, storing at −80° C.; • 6) Fixing the slides in cooled acetone for 10 min, washing 5 times with PBS for 5 minutes; • 7) Soaking the slides with 3% H2O2 to remove endogenous peroxidase and then washing 3 times with 1 ml PBS for 5 minutes; • 8) Blocking with 10% BSA for 20 minutes at room temperature; • 9) Incubating with anti-CD31 mouse first antibody at 4° C. overnight; • 10) Washing 3 times with PBS for 5 minutes; • 11) Incubating anti-mouse FITC second antibody at room temperature for one hour, keeping it away from light, and then washing 3 times with 1 ml PBS for 5 min; • 12) Adding DAPI at room temperature and keeping for 5 minutes and then washing 3 times with 1 ml PBS for 5 minutes; • 13) Covering the slides with anti-fade, then observing the slides under the laser confocal microscope

[11] = system: nasopharyngeal carcinoma cell CNE2; assay: Flow cytometry analysis of binding of Cy5-35 peptide; type: cell-based; conditions: 5 μM or 10 μM, on ice 30 minutes; FIG. 1C
Description: Flow cytometry analysis was applied to detect the binding affinity of Cy5-35 peptide to nasopharyngeal carcinoma cell CNE2. Firstly, the 35 peptide and control peptides separately coupled with fluorescent dye Cy5 were synthesized. Then, Cy5-35 peptide were incubated with cells. At the end, the binding efficacy was calculated using the flow cytometry analysis. Detailed steps were as followed: • 1) Trypsinizing cells, counting and adjusting the concentration to 1.0*10^6 cells/tube, and re-suspending cells with 200 μl RPMI 1640 medium; • 2) Adding Cy5-Control peptide or Cy5-35 peptide dissolved with PBS at a concentration of 5 μM or 10 μM, then incubating on ice for 30 minutes. • 3) Washing with 1 ml PBS, then centrifuging at 400 g force for 5 minutes; repeating this step twice; • 4) Re-suspending the precipitate with 1 ml TBS, • 5) Conducting the flow cytometry analysis.

[12] = system: nasopharyngeal carcinoma; assay: Near-infrared fluorescence imaging of tumor, small animal imaging; type: in vivo, BALB/C nude mice; conditions: 24 hours after intravenous injection
Description: (§2) Cy5-35 peptide distribution was examined in the different organs and tumors of nude mice. Small animal imaging assay was operated as followed: • 1) Using nine 4-week-old BALB/C nude mice; • 2) Trypsinizing cells, counting and adjusting the concentration to 1.0*10^6 cells/ml, and re-suspending cells with 200 μl RPMI 1640 medium containing 20% Matrigel, then subcutaneously injecting into the nude mice; • 3) Observing and measuring the size of tumor after 1-2 weeks. Based on the tumor size, the mice were randomly divided into three groups (PBS, Cy5-Control and Cy5-35, 3 mice in each group); • 4) Intravenously injecting 200 μl PBS or 300 μg fluorescence peptide dissolved in 200 μl PBS; the peptide distribution is detected in both normal organs and tumor using Caliper IVIS Lumina II; • 5) Obtaining normal organs and the tumor tissues, homogenizing them, and calculating the fluorescence intensity of normal organs and the tumor for statistical analysis.

[13] = system: MDA-MB-231; assay: Near-infrared fluorescence imaging in MDA-MB-231 nude mice model; type: in vivo; conditions: FIG. 4D
Description: as §2
To detect whether Cy5-35 peptide can apply to other tumors, the peptides were applied to MDA-MB-231 nude mice model.

[14] = system: nasopharyngeal carcinoma cells CNE2; assay: Flow cytometry analysis of cell penetration; type: cell-based; conditions: 37° C. two hours; FIG. 2B
Source text: The flow cytometry analysis was applied to detect whether phage 35 can penetrate the nasopharyngeal carcinoma cells CNE2.

[15] = 2 h after intravenous injection, FIG. 3B

CC(C)C[C@@H](NC(=O)[C@H](N)CCCCN)C(=O)N[C@H](C)C(=O)N[C@H](CCCCN)C(=O)N[C@H](CC(C)C)C(=O)N[C@H](C)C(=O)N[C@H](CCCCN)C(=O)N[C@H](CCCCN)C(=O)N[C@H](CC(C)C)C(=O)N[C@H](C)C(=O)N[C@H](CCCCN)C(=O)N[C@H](CC(C)C)C(=O)N[C@H](C)C(=O)N[C@H](CCCCN)C(=O)NCC(=O)NCC(=O)N[C@H]1CSSC[C@@H](C(=O)O)NC(=O)[C@H](C)NC(=O)[C@H](CC(N)=O)NC(=O)[C@H](CCC(=O)O)NC(=O)[C@H](CC(=O)O)NC(=O)[C@H](Cc2ccc(O)cc2)NC(=O)[C@H](Cc2c[nH]c3ccccc23)NC(=O)[C@H](CCCNC(=N)N)NC1=O [35-AP peptide, D (KLAKLAKKLAKLAK)-GG-CRWYDENAC] (H-[dK][dL][dA][dK][dL][dA][dK][dK][dL][dA][dK][dL][dA][dK]GGCRWYDENAC-OH; disulfide 17-25 (inferred); N-terminus and C-terminus assumed)
tumor volume [1]: reduced the tumor volume markedly
cell apoptosis in 5-8F [2]: also led to cell apoptosis
cell apoptosis in SUNE1 [3]: also led to cell apoptosis
apoptosis in CNE2 [4]: can significantly promote the apoptosis
cell apoptosis in CNE1 [5]: also led to cell apoptosis
cell apoptosis in HONE1 [6]: also led to cell apoptosis
cleaved Caspase3 activation [7]: cleaved Caspase3 was activated

Biotin-CRWYDENAC (cysteine pairing not given here) [Biotin-35 peptide]
penetration into CNE2 (cellular immunofluorescence) [8]: is able to penetrate into CNE2

CRWYDENAC (disulfide 1-9) [35 peptide]
apoptosis in CNE2 [4]: cannot induce the apoptosis in CNE2
blocking of phage 35 binding to CNE2 [9]: prevents phage 35 from binding to CNE2 in a dose-dependent manner

Cy5-CRWYDENAC (disulfide 1-9) [Cy5-35 peptide]
co-localization with vessel marker CD31 in tumor [10, 15]: co-localized with vessel marker CD31
penetration of tumor vessels and tumor cells [10, 15]: part of Cy5-35 peptides penetrated the tumor vessels and tumor cells
co-localization with vessel marker CD31 in tumor ([10]; half an hour after intravenous injection, FIG. 3A): co-localized with vessel marker CD31
binding to CNE2 cells (flow cytometry) [11]: binds to CNE2 cells in a dose-dependent manner
enrichment in tumor (NIR imaging) ([12]; FIG. 4A): significantly enriched in tumor
residual peptide in lung (NIR imaging) ([12]; FIG. 4B): certain residual peptides in lung
intensity of fluorescence in tumor versus other organs ([12]; FIG. 4C): significantly stronger than that in other organs
breast cancer imaging [13]: can also be applied in breast cancer imaging
penetration into CNE2 (flow cytometry) [14]: penetrates into CNE2 in a dose-dependent manner

D (KLAKLAKKLAKLAK) (D-amino acids) [AP peptide, reference compound]
apoptosis in CNE2 [4]: cannot induce the apoptosis in CNE2

D (KLAKLAKKLAKLAK-GG-CRWYDENAC) (KLAKLAKKLAKLAKGGCRWYDENAC; D-amino acids) [(35-AP)D]
apoptosis in CNE2 [4]: also activated the apoptosis of CNE2
